Source: patent US12509431B2, “1,4-dihydroquinazolinone compounds and uses thereof” (Edgewise Therapeutics, Inc., priority 2022, dated 2025)
Read-outs that look alike come from different tables or passages of the source.

Experiments:
[1] = tested on: Rabbit Skeletal myofibrils (rabbit psoas muscle); test: Myofibril ATPase assay (PK/LDH NADH-coupled), skeletal myofibrils; type: biochemical
In short: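 Rabbit psoas myofibrils in pCa (PIPES/CaCl2/EGTA, pH 7.0) buffer; ADP coupled via PK/LDH to NADH loss, read at 340 nm every 1.5–2 min for 75 min. Slopes normalized to vehicle (100%) and fit to 4-parameter logistic for EC25, plus EC50 for inhibitors.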

[2] = tested on: isoflurane-anesthetized SD rats; test: In vivo echocardiography of systolic cardiac performance (FS, SWT, HR, LV volumes) after a single oral dose; details: Rattus norvegicus, single dose 10 mg/kg PO, ~2 hrs post-dosing, vs. vehicle
Procedure: Experiments were performed to evaluate the in vivo ability of the compounds of the disclosure to modulate systolic cardiac performance. Non-invasively echocardiography was used to assess cardiac indicators in isoflurane-anesthetized SD rats. A set of conscious rats were treated with either vehicle control (0 mg/kg PO; n=78) or a single dose of an test compound (10 mg/kg PO, n=2 to 6/compound) via oral gavage. Cardiac function/geometry were recorded at two separate time-points/days: once prior to dosing (i.e., at baseline, day −2) and at ˜2 hrs post-dosing (day 0).
In these experiments, heart rate (HR), echocardiography-derived indices of left-ventricular systolic performance, as well as dimensions/volumes were measured using a high-frequency transducer and parastemnal long-axis transthoracic views (Vevo3100, VisualSonic). LV fractional shortening (FS), an index of systolic function, was defined as the end-diastole normalized change in internal dimensions divided by the […] (LVid) of the left ventricle between end-systole (LVids) and end-diastole (LVidd) (i.e., FS=100·[LVidd−LVids]/LVidd). LV volumes were derived using the Teichholz formula (LVV=7·LVid^3/[2.4+LVid]). In addition, a systolic wall-thickening index (SWT) was also evaluated. SWT is defined as the relative ratio (end-diastole normalized) of left-ventricular (anterior and posterior) wall-thickness change during systole; i.e., SWT=I{[(anterior LV wall thickness in systole−anterior LV wall thickness in diastole)][…][(posterior LV wall thickness in systole−posterior LV wall thickness in diastole)]}/{2*diastolic thickness}. In all cases, blood samples were taken (via either tail-vein micro-sampling or cardiac-puncture) at the time of each echocardiographic examination in order to establish pharmacokinetic (PK)/pharmacodynamics (PD) relationships.

Porcine Atria myofibrils = test: Myofibril ATPase assay (PK/LDH NADH-coupled), atria myofibrils; type: biochemical
In short: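 Porcine atrial myofibril ATPase followed via PK/LDH-coupled NADH depletion, absorbance at 340 nm read every 1.5-2 min over 75 min. Slopes (mAU/min) normalized to vehicle as 100% and fit to a 4-parameter logistic; EC25% derived, plus EC50% for inhibitors.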

[3] = molecular target: T1, Porcine Ventricle myofibrils (left ventricle of Yucatan minipigs) (Sus scrofa, UniProt P79293); test: Myofibril ATPase assay (PK/LDH NADH-coupled), ventricle myofibrils; type: biochemical
T1 construct: Myofibrils from porcine cardiac muscle was isolated from the left ventricle of Yucatan minipigs; tissue Exemplar Genetics; host or cells: left ventricle of Yucatan minipigs
T1 sequence (P79293 whole entry): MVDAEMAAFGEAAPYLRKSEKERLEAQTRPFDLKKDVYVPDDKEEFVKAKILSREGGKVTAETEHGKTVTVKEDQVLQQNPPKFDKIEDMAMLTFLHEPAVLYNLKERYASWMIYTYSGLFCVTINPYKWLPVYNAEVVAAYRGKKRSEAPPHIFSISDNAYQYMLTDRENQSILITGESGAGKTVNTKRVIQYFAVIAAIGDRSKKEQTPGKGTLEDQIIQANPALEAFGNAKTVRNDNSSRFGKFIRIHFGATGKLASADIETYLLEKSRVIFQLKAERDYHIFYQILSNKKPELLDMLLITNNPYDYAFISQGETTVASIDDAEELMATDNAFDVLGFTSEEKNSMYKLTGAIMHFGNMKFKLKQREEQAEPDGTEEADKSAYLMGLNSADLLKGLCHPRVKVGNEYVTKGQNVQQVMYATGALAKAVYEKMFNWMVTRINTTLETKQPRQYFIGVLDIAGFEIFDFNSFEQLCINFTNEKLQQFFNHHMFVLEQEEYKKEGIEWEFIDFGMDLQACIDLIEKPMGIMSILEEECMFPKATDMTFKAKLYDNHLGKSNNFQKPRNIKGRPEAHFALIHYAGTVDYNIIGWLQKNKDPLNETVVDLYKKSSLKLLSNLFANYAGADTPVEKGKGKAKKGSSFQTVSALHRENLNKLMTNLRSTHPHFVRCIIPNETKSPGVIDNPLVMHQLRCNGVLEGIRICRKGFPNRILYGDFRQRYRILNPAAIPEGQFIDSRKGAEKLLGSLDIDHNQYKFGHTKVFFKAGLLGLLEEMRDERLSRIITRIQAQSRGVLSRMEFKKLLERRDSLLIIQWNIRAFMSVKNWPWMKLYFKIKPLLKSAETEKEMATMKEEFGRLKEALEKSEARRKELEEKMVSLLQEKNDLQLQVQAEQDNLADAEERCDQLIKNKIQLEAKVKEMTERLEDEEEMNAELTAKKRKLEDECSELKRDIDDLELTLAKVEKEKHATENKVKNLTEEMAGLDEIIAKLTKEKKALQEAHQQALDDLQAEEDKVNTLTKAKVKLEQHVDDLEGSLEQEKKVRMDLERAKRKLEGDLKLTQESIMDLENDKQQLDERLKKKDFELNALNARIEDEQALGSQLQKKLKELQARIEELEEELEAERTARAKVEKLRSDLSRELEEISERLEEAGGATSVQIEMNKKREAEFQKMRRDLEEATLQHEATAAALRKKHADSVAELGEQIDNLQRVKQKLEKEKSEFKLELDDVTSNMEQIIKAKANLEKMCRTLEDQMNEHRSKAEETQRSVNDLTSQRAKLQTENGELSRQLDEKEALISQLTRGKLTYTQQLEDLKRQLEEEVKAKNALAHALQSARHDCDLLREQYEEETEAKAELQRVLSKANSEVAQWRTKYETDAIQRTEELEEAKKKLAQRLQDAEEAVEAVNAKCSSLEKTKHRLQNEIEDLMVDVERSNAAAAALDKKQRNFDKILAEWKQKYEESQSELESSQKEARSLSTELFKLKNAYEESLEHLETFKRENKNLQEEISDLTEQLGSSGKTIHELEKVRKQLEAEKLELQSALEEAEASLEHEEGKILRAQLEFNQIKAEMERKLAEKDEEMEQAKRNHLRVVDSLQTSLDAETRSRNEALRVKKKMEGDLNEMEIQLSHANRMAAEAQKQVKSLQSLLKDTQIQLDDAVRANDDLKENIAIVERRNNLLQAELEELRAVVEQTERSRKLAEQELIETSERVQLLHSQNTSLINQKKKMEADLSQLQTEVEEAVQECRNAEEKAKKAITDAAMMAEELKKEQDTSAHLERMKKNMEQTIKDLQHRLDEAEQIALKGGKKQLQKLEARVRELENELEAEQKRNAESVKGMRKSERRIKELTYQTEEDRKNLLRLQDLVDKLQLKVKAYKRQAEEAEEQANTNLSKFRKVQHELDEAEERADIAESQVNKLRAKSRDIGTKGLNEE
In short: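 Yucatan minipig left-ventricle myofibrils; ATPase measured by PK/LDH-coupled NADH loss at 340 nm, read every 1.5-2 min for 75 min. Slopes normalized to vehicle (100%) and fit to 4-parameter logistic model; EC25 and, for inhibitors, EC50 calculated.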

[4] = molecular target: T2, myosin+human ventricle RLC (Sus scrofa, UniProt P79293); test: NADH-coupled actin-activated ATPase assay, myosin + human ventricle RLC; type: biochemical; details: 2 μM myosin, rabbit skeletal actin, 25° C., 1% DMSO
T2 construct: Full-length myosin was resuspended to 1 mg/mL
T2 sequence (P79293 whole entry): as above
Procedure: (§1) Full-length myosin was resuspended to 1 mg/mL in a buffer containing 500 mM KCl, 10 mM KPi, 15 mM CDTA, pH 8.5. Triton-X was then added to a final concentration of […], and the suspension was agitated for 15 minutes at room temperature to selectively remove the regulatory light chain (RLC). RLC-removed myosin was then precipitated and collected and resuspended in a buffer containing 400 mM KCl, 50 mM Mops, pH 7, 2 mM MgCl2, and 1 mM DTT. Recombinantly expressed and purified human ventricle RLC was added in a 3-fold molar excess to myosin and incubated on ice for 2 hours to allow for reassociation of the RLC onto myosin. Triton (0.1%) was added to the reaction to prevent any non-specific binding events. RLC-exchanged myosin was then precipitated and collected and resuspended in a buffer containing 12 mM PIPES, pH 6.8, […], 2 mM MgCl2, and 1 mM DTT. RLC removal and exchange were confirmed by SDS-PAGE and proteins were visualized using coomassie stain.
(§2) Myosin was resuspended in buffer A (f.c.=12 mM PIPES, pH 6.8, 30 mM KCl, 2 mM MgCl2, 1 mM DTT, 0.1 mg/mL BSA, 0.01% (v/v) Antifoam 204, and 0.6% (v/v) PK/LDH (final reaction contains ≥3.6 U/mL PK and >5.4 U/mL LDH)) at final concentrations of 1 μM for myosin+native RLC and 2 μM for myosin+removed RLC and myosin+human ventricle RLC. Buffer A was then mixed with an equal volume of buffer B (f.c.=12 mM PIPES, pH 6.8, 30 mM KCl, 2 mM MgCl2, 1 mM DTT, 0.1 mg/mL BSA, 0.01% (v/v) Antifoam 204, 0.5 mM NADH, 1.5 mM phosphoenolpyruvate, 1 mM ATP, and 0.3 mg/mL filamentous rabbit skeletal actin) in a 384-well plate. Dose-dependent compound effects were assessed by adding the compounds at varying concentrations between 100 μM and 2 nM, all with a constant final DMSO concentration of 1% v/v. The reactions were run at a constant temperature of 25° C. in the plate reader to monitor the change in A340 over time. Measurements were taken every 90 sec for 75 min to generate raw time-domain absorbance data, which was processed to normalized reaction rates. Normalized enzymatic rates were calculated, using rates observed in 1% (v/v) in DMSO as 100% and 0 slope as 0%. Compound-specific activity curves were generated by plotting the normalized rates versus compound concentration and fitting the data to a 4-parameter logistic model. In addition to the fit parameters, the IC25% was calculated, relative to the 100% normalized value.

myosin+native RLC = molecular target: T3, myosin+native RLC (Sus scrofa, UniProt P79293); test: NADH-coupled actin-activated ATPase assay, myosin + native RLC; type: biochemical; details: 1 μM myosin, rabbit skeletal actin, 25° C., 1% DMSO
T3 construct: Full-length myosin was resuspended to 1 mg/mL
T3 sequence (P79293 whole entry): as above
Procedure: as §1, §2

myosin+removed RLC = molecular target: T4, myosin+removed RLC (Sus scrofa, UniProt P79293); test: NADH-coupled actin-activated ATPase assay, myosin + removed RLC; type: biochemical; details: 2 μM myosin, rabbit skeletal actin, 25° C., 1% DMSO
T4 construct: Full-length myosin was resuspended to 1 mg/mL
T4 sequence (P79293 whole entry): as above
Procedure: as §1, §2

[5] = EDV (LV volume, Teichholz formula), read-out: EDV % vs. VEH
[6] = LV fractional shortening, read-out: FS % vs. VEH
[7] = heart rate, read-out: HR % vs. VEH
[8] = systolic wall-thickening index, read-out: SWT % vs. VEH

SMILES | Rabbit Psoas IC25 ([1]; Table 8) [µM] | Porcine Atria IC25 (Porcine Atria myofibrils; Table 8) [µM] | Porcine Ventricle IC25 ([3]; Table 8) [µM] | Potency, Full-length myosin + exchanged human ventricle RLC [4] [µM] | Potency, Full-length myosin + native porcine ventricle RLC (myosin+native RLC) [µM] | Potency, Full-length myosin + RLC removed (myosin+removed RLC) [µM] | Rabbit Psoas IC25 ([1]; Table 7) [µM] | Porcine Atria IC25 (Porcine Atria myofibrils; Table 7) [µM] | Porcine Ventricle IC25 ([3]; Table 7) [µM] | change in vivo at 10 mg/kg [2, 5] [%] | change in vivo at 10 mg/kg [2, 6] [%] | change in vivo at 10 mg/kg [2, 7] [%] | change in vivo at 10 mg/kg [2, 8] [%]
N#Cc1c(F)ccc2c1CN(CC(=O)N[C@@H](CO)c1ccc(F)cc1F)C(=O)N2 [Compound B152] | 0.03953 | 0.17 | 0.2946 |  |  |  |  |  |  | -6 | 6 | 1 | -2
C[C@H](NC(=O)CN1Cc2cc(F)ccc2NC1=O)c1ccc(C#N)cn1 [Compound B172] | 2.013 | 2.94 | 20.93 | 14.39 | 12.32 | >100.0 |  |  |  |  |  |  | 
O=C(CN1Cc2cc(F)ccc2NC1=O)N[C@@H](CO)c1ncc(F)cc1F [Compound B181] | 0.242 | 0.13 | 1.905 |  |  |  |  |  |  | -6 | -13 | 8 | -5
C[C@H](NC(=O)C1(N2Cc3c(ccc(F)c3F)NC2=O)CC1)c1ncc(C#N)cc1F [Compound B269] | 0.06 | 0.06 | 0.15 | 0.49 | 0.59 | >100.0 |  |  |  |  |  |  | 
C[C@@H](NC(=O)CN1C(=O)Nc2ccc(F)c(F)c2C1O)c1ncc(C#N)cc1F (some centres unmarked) [Compound B327] |  |  |  |  |  |  |  |  |  | -2 | -1 | 5 | 10
C[C@@H](NC(=O)CN1Cc2cc(F)c(F)cc2NC1=O)c1ncc(C#N)cc1F [Compound B357] | 50.29 | 1.56 | 100.00 |  |  |  |  |  |  | 5 | -8 | -5 | -5
C[C@H](NC(=O)CN1C(=O)Nc2cccnc2C12CC2)c1ncc(C#N)cc1F [Compound N26] |  |  |  | 1.92 | 2.17 | >100.0 | 0.04764 | 0.15 | 1.309 |  |  |  | 

Second part, led by results:

Rabbit Psoas IC25 ([1]; Table 8) [µM] | Porcine Atria IC25 (Porcine Atria myofibrils; Table 8) [µM] | Porcine Ventricle IC25 ([3]; Table 8) [µM] | Potency, Full-length myosin + exchanged human ventricle RLC [4] [µM] | Potency, Full-length myosin + native porcine ventricle RLC (myosin+native RLC) [µM] | Potency, Full-length myosin + RLC removed (myosin+removed RLC) [µM] | Rabbit Psoas IC25 ([1]; Table 7) [µM] | Porcine Atria IC25 (Porcine Atria myofibrils; Table 7) [µM] | Porcine Ventricle IC25 ([3]; Table 7) [µM] | SMILES | change in vivo at 10 mg/kg [2, 5] [%] | change in vivo at 10 mg/kg [2, 6] [%] | change in vivo at 10 mg/kg [2, 7] [%] | change in vivo at 10 mg/kg [2, 8] [%]
0.0114 | 0.05 | 0.0533 |  |  |  |  |  |  | Cc1nc(C#N)cnc1C(C)NC(=O)CN1Cc2c(ccc(F)c2F)NC1=O (single isomer, unassigned) [Compound B55] | 70 | -36 | -5 | 10
0.02168 | 0.04 | 0.05434 |  |  |  |  |  |  | C[C@H](NC(=O)CN1Cc2c(ccc(F)c2F)NC1=O)c1ncc(C#N)cc1F [Compound B142] | 21 | -81 | 6 | -78
0.05 | 0.07 | 0.77 |  |  |  |  |  |  | [2H]C1([2H])c2c(ccc(F)c2F)NC(=O)N1CC(=O)N[C@@H](C)c1ncc(C#N)cc1F [Compound B366] | 82 | -71 | -2 | -41
0.78 | 0.32 | 0.55 |  |  |  |  |  |  | [2H]C1([2H])c2c(ccc(F)c2F)NC(=O)N1CC(=O)N[C@H](C)c1ncc(C#N)cc1F [Compound B367] | -6 | -31 | 10 | -32
